Source: patent publication US11905306B2 (priority 2021, dated 2024)

Experiments:
Toronto 2 SARS CoV-1 = assay: organism not typed; format: cell-based; settings: Vero C1008, 72 h, read-out: SARS-1 EC50 (μM) VeroE6
USA_WA1/2020 SARS CoV-2 = assay: microbe, parasite or virus in culture; format: cell-based; settings: Severe acute respiratory syndrome coronavirus 2, Vero C1008, 72 h, read-out: SARS-2 EC50 (μM) VeroE6
in vitro = settings: African green monkey

Compound | EC50 (Toronto 2 SARS CoV-1) [µM] | EC50 (USA_WA1/2020 SARS CoV-2) [µM] | CC50 (in vitro) [µM]
O=C(Nc1cccc(C#Cc2ccccn2)c1)c1ccc(N2CC3(CCC3)C2=O)cc1 [Compound 35, 4-(1-Oxo-2-azaspiro[3.3]heptan-2-yl)-N-(3-(pyridin-2-ylethynyl)phenyl)benzamide] | 0.43 | 1.64 | > 30
Cc1cc(C#Cc2ccccn2)nc(NC(=O)c2ccc3c(c2)CCC(=O)N3)c1 [Compound 47, N-(4-Methyl-6-(pyridin-2-ylethynyl)pyridin-2-yl)-2-oxo-1,2,3,4-tetrahydroquinoline-6-carboxamide] | 5.51 | 6.29 | > 30
O=C(Nc1ccc(C(=O)Nc2cccc(C#Cc3ccccn3)c2)cc1)c1ccc(O)cc1 [Compound 28, 4-Hydroxy-N-(4-((3-(pyridin-2-ylethynyl)phenyl)carbamoyl)phenyl)benzamide] | 17.1 | > 30 | > 30
O=C(Nc1cccc(C#Cc2ccccn2)c1)c1ccc(C(=O)NC2CC2)cc1 [Compound 37, N^1-cyclopropyl-N^4-(3-(pyridin-2-ylethynyl)phenyl)terephthalamide] | 2.12 | 4 | > 30
CC(=O)Nc1ccc(C(=O)Nc2cccc(C#Cc3ccccn3)c2)nn1 [Compound 31, 6-Acetamido-N-(3-(pyridin-2-ylethynyl)phenyl)pyridazine-3-carboxamide] | > 30 | > 30 | > 30
O=C(Nc1cccc(C#Cc2ccccn2)c1)c1ccc(N2CCCCCC2=O)cc1 [Compound 25, 4-(2-Oxoazepan-1-yl)-N-(3-(pyridin-2-ylethynyl)phenyl)benzamide] | 0.52 | 1.09 | > 30
COc1cc(C#Cc2ccccn2)cc(C(=O)Nc2ccc(N3CCCCC3=O)cc2)c1 [Compound 72, 3-methoxy-N-(4-(2-oxopiperidin-1-yl)phenyl)-5-(pyridin-2-ylethynyl)benzamide] | 0.24 | 0.51 | 26.6
O=C(Nc1ccc(NC(=O)N2CCC2)cc1)c1cccc(C#Cc2ccccn2)c1 [Compound 60, N-(4-(3-(pyridin-2-ylethynyl)benzamido)phenyl)azetidine-1-carboxamide] | 3.93 | 7.75 | > 30
O=C(Nc1cccc(C#Cc2ccccn2)c1)c1ccc(N2CCCOC2=O)cc1 [Compound 18, 4-(2-Oxo-1,3-oxazinan-3-yl)-N-(3-(pyridin-2-ylethynyl)phenyl)benzamide] | > 30 | > 30 | > 30
O=C(Nc1cccc(C#Cc2ccccn2)c1)c1ccc(C(=O)NC2CCCC2)cc1 [Compound 39, N^1-cyclopentyl-N^4-(3-(pyridin-2-ylethynyl)phenyl)terephthalamide] | 0.53 | 1 | > 40
O=C(Nc1cccc(C#Cc2ccccn2)c1)c1ccc(N2CCC2=O)cc1 [Compound 20, 4-(2-oxoazetidin-1-yl)-N-(3-(pyridin-2-ylethynyl)phenyl)benzamide] | 2.12 | 11.7 | > 30
O=C(Nc1cc(C#Cc2ccccn2)cc(OCC2CC2)c1)c1ccc(N2CCCCC2=O)cc1 [Compound 53, N-(3-(Cyclopropylmethoxy)-5-(pyridin-2-ylethynyl)phenyl)-4-(2-oxopiperidin-1-yl)benzamide] | 0.062 | 0.18 | > 30
CC(=O)Nc1ccc(NC(=O)c2cccc(C#Cc3ccccn3)c2)cc1 [Compound 55, N-(4-acetamidophenyl)-3-(pyridin-2-ylethynyl)benzamide] | 2.82 | 4.18 | > 30
N#CC1(c2ccc(C(=O)Nc3cccc(C#Cc4ccccn4)c3)cc2)CC1 [Compound 45, 4-(1-Cyanocyclopropyl)-N-(3-(pyridin-2-ylethynyl)phenyl)benzamide] | 3.12 | 3.72 | 20.8
CC(=O)Nc1ccc(-c2nc3ccc(C#Cc4ccccn4)cc3[nH]2)cc1 [Compound 49, N-(4-(5-(Pyridin-2-ylethynyl)-1H-benzo[d]imidazol-2-yl)phenyl)acetamide] | > 30 | > 30 | > 30
O=C(Nc1ccc(C(O)(C(F)(F)F)C(F)(F)F)cc1)c1cccc(C#Cc2ccccn2)c1 [Compound 68, N-(4-(1,1,1,3,3,3-hexafluoro-2-hydroxypropan-2-yl)phenyl)-3-(pyridin-2-ylethynyl)benzamide] | 0.52 | 27.7 | 9.72
CN1CCN(c2ccc(C(=O)Nc3cccc(C#Cc4ccccn4)c3)cc2)C1=O [Compound 16, 4-(3-Methyl-2-oxoimidazolidin-1-yl)-N-(3-(pyridin-2-ylethynyl)phenyl)benzamide] | 0.75 | 1.28 | > 30
O=C(Nc1cccc(C#Cc2ccccn2)c1)c1ccc(N2CCN(C3CCC3)CC2=O)cc1 [Compound 32, 4-(4-Cyclobutyl-2-oxopiperazin-1-yl)-N-(3-(pyridin-2-ylethynyl)phenyl)benzamide] | 6.08 | 5.02 | 23.1
COc1cc(C#Cc2ccccn2)cc(NC(=O)c2ccc(N3CCCCS3(=O)=O)cc2)c1 [Compound 76] | 0.172 | 0.189 | > 30
